In one experiment the target is T1, CCK-B (Cavia porcellus, UniProt H0VZC5).
T1 construct: guinea pig brain (CCK-B); from tissue; host or cells: guinea pig brain
T1 sequence (H0VZC5 1-426): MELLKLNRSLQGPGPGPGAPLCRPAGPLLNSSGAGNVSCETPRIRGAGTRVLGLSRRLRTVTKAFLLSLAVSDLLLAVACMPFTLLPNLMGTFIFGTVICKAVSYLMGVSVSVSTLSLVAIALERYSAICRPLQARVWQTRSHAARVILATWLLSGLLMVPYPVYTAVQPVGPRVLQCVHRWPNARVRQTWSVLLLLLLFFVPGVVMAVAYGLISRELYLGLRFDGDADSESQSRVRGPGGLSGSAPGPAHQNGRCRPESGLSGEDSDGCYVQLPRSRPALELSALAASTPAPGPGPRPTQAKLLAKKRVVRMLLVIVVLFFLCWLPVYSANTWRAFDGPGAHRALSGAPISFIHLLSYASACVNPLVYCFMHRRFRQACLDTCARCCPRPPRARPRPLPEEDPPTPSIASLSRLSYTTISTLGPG
The experiment can be described thus: displacement of specific 125I-CCK from guinea pig brain (CCK-B receptor binding). As for the experimental part:
The CCK-A and CCK-B antagonising activity of the compounds described herein was evaluated using the assays described in published European patent application no. 0514133. The method essentially involves determining the concentration of the test compound required to displace 50% of the specific ^125 I-CCK from rat pancreas (CCK-A) or guinea pig brain (CCK-B). The data in Table 1 were obtained for compounds of the Examples.

The target in a further experiment is T2, CCK-A (Rattus norvegicus, UniProt P30551).
T2 sequence (P30551 1-444): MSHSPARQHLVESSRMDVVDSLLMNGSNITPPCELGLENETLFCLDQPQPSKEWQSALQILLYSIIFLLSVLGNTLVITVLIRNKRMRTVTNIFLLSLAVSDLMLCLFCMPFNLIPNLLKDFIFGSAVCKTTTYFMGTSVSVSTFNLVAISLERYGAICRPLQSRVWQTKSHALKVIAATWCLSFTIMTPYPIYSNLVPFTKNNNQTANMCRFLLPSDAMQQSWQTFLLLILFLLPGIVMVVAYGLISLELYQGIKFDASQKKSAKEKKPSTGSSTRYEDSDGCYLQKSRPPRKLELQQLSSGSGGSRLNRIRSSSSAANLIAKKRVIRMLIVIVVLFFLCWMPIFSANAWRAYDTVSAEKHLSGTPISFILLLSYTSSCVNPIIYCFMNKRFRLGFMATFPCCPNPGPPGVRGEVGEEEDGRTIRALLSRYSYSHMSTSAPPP
The experiment in a line: biochemical. It counts as binding. Conditions: rat pancreas (CCK-A), 125I-CCK. On the procedure:
The CCK-A and CCK-B antagonising activity of the compounds described herein was evaluated using the assays described in published European patent application no. 0514133. The method essentially involves determining the concentration of the test compound required to displace 50% of the specific ^125 I-CCK from rat pancreas (CCK-A) or guinea pig brain (CCK-B).

Setting [1] is: read-out: CCK RECEPTOR BINDING RESULTS IC50 125I-CCK Brain.
Where [2] appears, read: read-out: CCK RECEPTOR BINDING RESULTS IC50 125I-CCK Pancreas.
Where [3] appears, read: CCK RECEPTOR BINDING RESULTS IC50 125I-CCK Brain.

Here are results for 20 compounds from US5618812A, “Benzodiazepine derivatives” (Merck Sharp & Dohme, Ltd., priority 1992, dated 1997).

Structures are written as SMILES. pIC50: −log10 of the molar value. Where a name gives a salt, the structure may show the parent alone. Read-outs that look alike come from different tables or passages of the source. A value given as a limit tells only on which side of the number the result lay.

The pIC50 is the negative decadic logarithm of the IC50, by convention in mol/L. `CCCN1C(=O)C(NC(=O)Nc2cccc(C)c2)N=C(N2CCC3(CC2)OCCO3)c2ccccc21` (racemic) [Example 1, N-[3(R,S)-2,3-Dihydro-5-(1,4-dioxa-8-azaspiro[4,5]decan-8-yl)-2-oxo-1-propyl-1H-1,4-benzodiazepin-3-yl]N'-[3-methylphenyl]urea]: the results for the negative logarithm of the IC50 (pIC50) on CCK-B (setting [1]) and at CCK-A (setting [2]) were 7.83 and 6.14, respectively.

For the compound `CCCN1C(=O)C(NC(=O)Nc2cccc(C)c2)N=C(N2CCC(=O)CC2)c2ccccc21` (racemic) [Example 2, N-[3(R,S)-2,3-Dihydro-2-oxo-5-(4-oxopiperidin-1-yl)-1-propyl-1H-1,4-benzodiazepin-3-yl]N'-[3-methylphenyl] urea], the pIC50 on CCK-B (setting [1]) is 8.69; at CCK-A (setting [2]), 6.06.

As to `CCCN1C(=O)C(NC(=O)Nc2cccc(C)c2)N=C(N2CCC(NCC(F)(F)F)CC2)c2ccccc21` (racemic) [Example 3, N-[3(R,S)-2,3-Dihydro-2-oxo-1-propyl-5-(4-[1,1,1-trifluoroethylamine]piperidin-1-yl)-1H-1,4-benzodiazepin-3-yl]N'-[3-methylphenyl]urea], the pIC50 is 7.94 at CCK-B (setting [1]) and 6.26 at CCK-A (setting [2]).

Turning to `CN1C(=O)C(NC(=O)Nc2ccc3c(c2)CCC3)N=C(N2CCC(C)(C)CC2)c2ccccc21` (racemic) [Example 4, N-[3(R,S)-2,3-Dihydro-5-(4,4-dimethylpiperidin-1-yl)-1-methyl-2-oxo-1H-1,4-benzodiazepin-3-yl]N'-[indan-5-yl]urea], the figures for the pIC50 on CCK-B (setting [1]) and at CCK-A (setting [2]) were 8.92 and 7.46, respectively.

As for `Cc1cccc(NC(=O)NC2N=C(N3CCC(C)CC3)c3ccccc3N(C)C2=O)c1` (racemic) [Example 7, N-[3(R,S)-2,3-Dihydro-1-methyl-5-(4-methylpiperidin-1-yl)-2-oxo-1H-1,4-benzodiazepin-3-yl]N'-[3-methylphenyl]urea], the pIC50 at CCK-B (setting [1]) is 8.79; on CCK-A (setting [2]), 8.11.

Regarding `Cc1cccc(NC(=O)NC2N=C(N3CCC(C)(C)CC3)c3ccccc3N(C)C2=O)c1` (racemic) [Example 9, N-[3(R,S)-2,3-Dihydro-5-(4,4-dimethylpiperidin-1-yl)-1-methyl-2-oxo-1H-1,4-benzodiazepin-3-yl]N'-[3-methylphenyl]urea], the pIC50 at CCK-B (setting [1]) is 9.68; at CCK-A (setting [2]), 8.05.

`COC1CCN(C2=NC(NC(=O)Nc3cccc(C)c3)C(=O)N(C)c3ccccc32)CC1` (racemic) [Example 11, N-[3(R,S)-2,3-Dihydro-5-(4-methoxypiperidin-1-yl)-1-methyl-2-oxo-1H-1,4-benzodiazepin-3-yl]N'-[3-methylphenyl]urea]: the pIC50 at CCK-B (setting [1]) was 8.37; on CCK-A (setting [2]), 7.60.

For `CCCN1C(=O)C(NC(=O)Nc2cccc(C)c2)N=C(N2CCC(C)CC2)c2ccccc21` (racemic) [Example 17, N-[3(R,S)-2,3-Dihydro-5-(4-methylpiperidin-1-yl)-2-oxo-1-propyl-1H-1,4-benzodiazepin-3-yl]N'-[3-methylphenyl]urea], the pIC50 on CCK-B (setting [1]) is 9.70; on CCK-A (setting [2]), 7.57.

`Cc1cccc(NC(=O)NC2N=C(N3CCC(C)(C)CC3)c3ccccc3N(CC(F)(F)F)C2=O)c1` (racemic) [Example 27, N-[3(R,S)-2,3-Dihydro-5-(4,4,dimethylpiperidin-1-yl)-2-oxo-1-(2,2,2-trifluoroethyl)-1H-1,4-benzodiazepin-3-yl]N'-(3-methylphenyl) urea]: the pIC50 on CCK-B (setting [1]) was 7.48; on CCK-A (setting [2]), 7.82.

Turning to `Cc1cccc(NC(=O)NC2N=C(N3CC4CCC(CC4)C3)c3ccccc3N(C)C2=O)c1` (racemic) [Example 31, N-[3(R,S)-5-(3-Azabicyclo[3,2,2]nonan-3-yl)-2,3-dihydro-1-methyl-2-oxo-1H-1,4-benzodiazepin-3-yl]-N'-[3-methylphenyl]urea], the pIC50 was 9.28 on CCK-B (setting [3]) and 7.70 on CCK-A (CCK RECEPTOR BINDING RESULTS IC50 125I-CCK Pancreas).

Take `CN1C(=O)C(NC(=O)Nc2cccc(F)c2)N=C(N2CC3CCC(CC3)C2)c2ccccc21` (racemic) [Example 35, N-[3(R,S)-5-(3-Azabicyclo[3,2,2]nonan-3-yl)-2,3-dihydro-1-methyl-2-oxo-1H-1,4-benzodiazepin-3-yl]-N'-[3-fluorophenyl]urea]: the results for the pIC50 at CCK-B (setting [3]) and at CCK-A (setting [2]) were 9.09 and 7.40, respectively.

Consider `Cc1cccc(NC(=O)NC2N=C(N3CC4CCC(C4)C3)c3ccccc3N(C)C2=O)c1` (racemic) [Example 38, N-[3(R,S)-5-(3-Azabicyclo[3,2,1]octan-3-yl)-2,3-dihydro-1-methyl-2-oxo-1H-1,4-benzodiazepin-3-yl]-N'-[3-methylphenyl]urea], for which the pIC50 was 9.15 at CCK-B (setting [1]) and 8.10 on CCK-A (setting [2]).

For the compound `CN1C(=O)C(NC(=O)Nc2cccc(C(F)(F)F)c2)N=C(N2CC3CCC(CC3)C2)c2ccccc21` (racemic) [Example 42, N-[3(R,S)-5-(3-Azabicyclo[3,2,2]nonan-3-yl)-2,3-dihydro-1-methyl-2-oxo-1H-1,4-benzodiazepin-3-yl]-N'-[3-trifluoromethyl-phenyl]urea], the values for the pIC50 at CCK-B (setting [3]) and at CCK-A (setting [2]) were 8.75 and 7.09, respectively.

Consider `CCCN1C(=O)C(NC(=O)Nc2cccc(C)c2)N=C(N2CC3CCC(C2)N3C)c2ccccc21` (racemic) [Example 43, N-[3(R,S)-2,3-Dihydro-5-(8-methyl-3,8-diazabicyclo[3,2,1]octan-3-yl)-2-oxo-1-propyl-1H-1,4-benzodiazepin-3-yl]-N'-[3-methylphenyl]urea], for which the pIC50 on CCK-B (setting [3]) is 7.32; on CCK-A (setting [2]), under 5.52.

As to `Cc1ccc(NC(=O)NC2N=C(N3CC4CCC(CC4)C3)c3ccccc3N(C)C2=O)cc1F` (racemic) [Example 44, N-(3(R,S)-5-(3-Azabicyclo[3,2,2]nonan-3-yl)-2,3-dihydro-1-methyl-2-oxo 1H-1,4-benzodiazepin-3-yl]-N'-[3-fluoro-4-methylphenyl]urea], the values for the pIC50 on CCK-B (setting [3]) and at CCK-A (setting [2]) were 9.28 and 7.15, respectively.

For the compound `CN1C(=O)C(NC(=O)Nc2cccc(I)c2)N=C(N2CC3CCC(CC3)C2)c2ccccc21` (racemic) [Example 47, N-[3(R,S)-5-(3-Azabicyclo[3,2,2]nonan-3-yl)-2,3-dihydro-1-methyl-2-oxo-1H-1,4-benzodiazepin-3-yl]-N'-[3-iodophenyl]urea], the pIC50 at CCK-B (setting [3]) is 9.00; at CCK-A (setting [2]), 7.58.

Take `CN1C(=O)C(NC(=O)Nc2ccccc2)N=C(N2CC3CCC(CC3)C2)c2ccccc21` (racemic) [Example 50, N-[3(R,S)-5-(3-Azabicyclo[3,2,2]nonan-3-yl)-2,3-dihydro-1-methyl-2-oxo-1H-1,4-benzodiazepin-3-yl]-N'-[phenyl]urea]: the pIC50 was 8.41 at CCK-B (setting [3]) and 8.00 on CCK-A (setting [2]).

`Cc1cccc(NC(=O)NC2N=C(N3CC4CCC3CC4)c3ccccc3N(C)C2=O)c1` (racemic) [Example 51, N-[3(R,S)-5-(2-Azabicyclo[2,2,2]octan-2-yl)-2,3-dihydro-1-methyl-2-oxo-1H-1,4-benzodiazepin-3-yl]-N'-[3-methylphenyl]urea]: the values for the pIC50 at CCK-B (setting [1]) and at CCK-A (setting [2]) were 8.26 and 7.55, respectively.

On to `Cc1cc(NC(=O)NC2N=C(N3CC4CCC(CC4)C3)c3ccccc3N(C)C2=O)ccc1F` (racemic) [Example 52, N-[3(R,S)-5-(3-Azabicyclo[3,2,2]nonan-3-yl)-2,3-dihydro-1-methyl-2-oxo-1H-1,4-benzodiazepin-3-yl)-N'-[4-fluoro-3-methylphenyl]urea], for which the pIC50 on CCK-B (setting [3]) is 9.60; on CCK-A (setting [2]), 7.73.

`Cc1cccc(NC(=O)NC2N=C(N3CC4CCC(CC4)C3)c3ccccc3N(C)C2=O)c1` (single isomer, unassigned; (-)) [Example 33, (-)-N-[5-(3-Azabicyclo[3,2,2]nonan-3-yl)-2,3-dihydro-1-methyl-2-oxo-1H-1,4-benzodiazepin-3-yl]-N'-[3-methylphenyl]urea Hydrochloride] showed a pIC50 at CCK-B (setting [3]) of 10.00.
